# Laboratory results published in patent publication US10005818B2, “Derivative peptide compounds and methods of use” (REALTA HOLDINGS, LLC, priority 2010, dated 2018).
# Square brackets hold non-standard residues; d marks the D form. Peptide text beside a SMILES is read from it. Sar = CNCC(=O)O
# Legend:
# [1] = system: complement activation in factor B-depleted human sera; assay type: biochemical
# Method: Peptides were diluted to 0.77 mM in factor B-depleted human sera (Complement Technologies, Inc.) and incubated for 1 hour at 37° C. These peptides were then diluted with GVBS^++ to equal 2.5/s serum, of which 0.25 ml was combined with 0.4 ml of GVBS^++ and 0.1 ml of sensitized sheep red blood cells (RBCs) and again incubated for 1 hour at 37° C. The procedure was stopped by the addition of 4.0 ml of GVBS^−−, centrifuged for 5 minutes at 1,620×g, and the absorbance of the supernatants was read at 412 nm in a spectrophotometer. The percent lysis of each sample was standardized to that of the serum only control.
# The final concentration of peptide in factor B-depleted serum was 0.77 mM. Each peptide was evaluated in triplicate and the mean values are reported. […] In the hemolytic assay, soluble peptides are standardized to water and insoluble peptides standardized to DMSO.
# Polar Assortant peptides were serially diluted in undiluted factor B-depleted human sera (Complement Technologies, Inc.) and incubated for 1 hour at 37° C. Water, GVBS^++ and DMSO were included as controls. These peptides were then diluted with GVBS^++ to equal 2.5/s serum, of which 0.25 ml was combined with 0.4 ml of GVBS^++ and 0.1 ml of sensitized sheep red blood cells (RBCs) and again incubated for 1 hour at 37° C. The procedure was stopped by the addition of 4.0 ml of GVBS^−−, centrifuged for 5 minutes at 1,620×g, and the absorbance of the supernatants was read at 412 nm in a spectrophotometer. The percent lysis of each sample was standardized to that of the serum only control.
# The final concentration of peptide in factor B-depleted serum was 0.77 mM. […] In the hemolytic assay, soluble peptides were standardized to water and insoluble peptides standardized to DMSO.
# The final concentration of peptide in factor B-depleted serum was 0.77 mM. […] In the hemolytic assay, soluble peptides are standardized to water and insoluble peptides standardized to DMSO.
# [2] = Solubility in water; assay type: physicochemical
# [3] = Table 7, PEGylated and sarcosine/alanine substitution peptides
# [4] = Table 5, sarcosine substitution peptides
SMILES,Hemolysis (%) [1],"Solubility in water [2, 3]",solubility in water / aqueous solutions [2],"Solubility in water [2, 4]"
CC[C@H](C)[C@H](N)C(=O)N[C@@H](C)C(=O)N[C@@H](CC(C)C)C(=O)N[C@H](C(=O)N[C@@H](CC(C)C)C(=O)N[C@@H](CCC(=O)O)C(=O)N1CCC[C@H]1C(=O)N[C@H](C(=O)N(C)CC(=O)N[C@@H](CCC(N)=O)C(=O)N[C@@H](CCC(=O)O)C(=O)N[C@@H](CCCNC(=N)N)C(=O)N[C@@H](C)C(=O)N[C@@H](C)C(=O)O)[C@@H](C)CC)[C@@H](C)CC [PA-C9SarD10] (H-IALILEPI[Sar]QERAA-OH),100.52%,Yes,–,–
CC[C@H](C)[C@H](N)C(=O)N[C@@H](C)C(=O)N[C@@H](CC(C)C)C(=O)N[C@H](C(=O)N[C@@H](CC(C)C)C(=O)N[C@@H](CCC(=O)O)C(=O)N1CCC[C@H]1C(=O)N[C@H](C(=O)N(C)CC(=O)N[C@@H](CS)C(=O)N[C@@H](CCC(N)=O)C(=O)N[C@@H](CCC(=O)O)C(=O)N[C@@H](CCCNC(=N)N)C(=O)N[C@@H](C)C(=O)N[C@@H](C)C(=O)O)[C@@H](C)CC)[C@@H](C)CC [PA-C9Sar] (H-IALILEPI[Sar]CQERAA-OH; N-terminus and C-terminus assumed),5.63%,–,water soluble,Yes
CC[C@H](C)[C@H](N)C(=O)N[C@@H](C)C(=O)N[C@@H](CC(C)C)C(=O)N[C@H](C(=O)N[C@@H](CC(C)C)C(=O)N[C@@H](CCC(=O)O)C(=O)N1CCC[C@H]1C(=O)N[C@H](C(=O)N[C@@H](CS)C(=O)N(C)CC(=O)N[C@@H](CCC(N)=O)C(=O)N[C@@H](CCC(=O)O)C(=O)N[C@@H](CCCNC(=N)N)C(=O)N[C@@H](C)C(=O)N[C@@H](C)C(=O)O)[C@@H](C)CC)[C@@H](C)CC [PA-C10Sar],56.18%,–,–,No
CC[C@H](C)[C@H](N)C(=O)N[C@@H](C)C(=O)N[C@@H](CC(C)C)C(=O)N[C@H](C(=O)N[C@@H](CC(C)C)C(=O)N(C)CC(=O)N1CCC[C@H]1C(=O)N[C@H](C(=O)N[C@@H](CS)C(=O)N[C@@H](CS)C(=O)N[C@@H](CCC(N)=O)C(=O)N[C@@H](CCC(=O)O)C(=O)N[C@@H](CCCNC(=N)N)C(=O)N[C@@H](C)C(=O)N[C@@H](C)C(=O)NCCOCCOCCOCCOCCOCCOCCOCCOCCOCCOCCOCCOCCOCCOCCOCCOCCOCCOCCOCCOCCOCCOCCOCCOCCC(=O)O)[C@@H](C)CC)[C@@H](C)CC [PA-E6Sar-dPEG24],12.88%,Yes,–,–
CC[C@H](C)[C@H](N)C(=O)N[C@@H](C)C(=O)N[C@@H](CC(C)C)C(=O)N[C@H](C(=O)N[C@@H](CC(C)C)C(=O)N(C)CC(=O)N1CCC[C@H]1C(=O)N[C@H](C(=O)N[C@@H](CS)C(=O)N[C@@H](CS)C(=O)N[C@@H](CCC(N)=O)C(=O)N[C@@H](CCC(=O)O)C(=O)N[C@@H](CCCNC(=N)N)C(=O)N[C@@H](C)C(=O)N[C@@H](C)C(=O)O)[C@@H](C)CC)[C@@H](C)CC [PA-E6Sar],5.19%,–,–,No
CC[C@H](C)[C@H](NC(=O)[C@H](CC(C)C)NC(=O)[C@H](C)NC(=O)CNC)C(=O)N[C@@H](CC(C)C)C(=O)N[C@@H](CCC(=O)O)C(=O)N1CCC[C@H]1C(=O)N[C@H](C(=O)N[C@@H](CS)C(=O)N[C@@H](CS)C(=O)N[C@@H](CCC(N)=O)C(=O)N[C@@H](CCC(=O)O)C(=O)N[C@@H](CCCNC(=N)N)C(=O)N[C@@H](C)C(=O)N[C@@H](C)C(=O)O)[C@@H](C)CC [PA-I1Sar],84.49%,–,–,No
CC[C@H](C)[C@H](N)C(=O)N[C@@H](C)C(=O)N[C@@H](CC(C)C)C(=O)N(C)CC(=O)N[C@@H](CC(C)C)C(=O)N[C@@H](CCC(=O)O)C(=O)N1CCC[C@H]1C(=O)N[C@H](C(=O)N[C@@H](CS)C(=O)N[C@@H](CS)C(=O)N[C@@H](CCC(N)=O)C(=O)N[C@@H](CCC(=O)O)C(=O)N[C@@H](CCCNC(=N)N)C(=O)N[C@@H](C)C(=O)N[C@@H](C)C(=O)O)[C@@H](C)CC [PA-I4Sar] (H-IAL[Sar]LEPICCQERAA-OH; N-terminus and C-terminus assumed),93.19%,–,–,Yes
"CC[C@H](C)[C@H](N)C(=O)N[C@@H](C)C(=O)N[C@@H](CC(C)C)C(=O)N[C@H](C(=O)N[C@@H](CC(C)C)C(=O)N[C@@H](CCC(=O)O)C(=O)N1CCC[C@H]1C(=O)N(C)CC(=O)N[C@@H](CS)C(=O)N[C@@H](CS)C(=O)N[C@@H](CCC(N)=O)C(=O)N[C@@H](CCC(=O)O)C(=O)N[C@@H](CCCNC(=N)N)C(=O)N[C@@H](C)C(=O)N[C@@H](C)C(=O)O)[C@@H](C)CC [PA-I8Sar, IALILEP(Sar)CCQERAA]",33.92%,–,–,Yes
CC[C@H](C)[C@H](N)C(=O)N[C@@H](C)C(=O)N(C)CC(=O)N[C@H](C(=O)N[C@@H](CC(C)C)C(=O)N[C@@H](CCC(=O)O)C(=O)N1CCC[C@H]1C(=O)N[C@H](C(=O)N[C@@H](CS)C(=O)N[C@@H](CS)C(=O)N[C@@H](CCC(N)=O)C(=O)N[C@@H](CCC(=O)O)C(=O)N[C@@H](CCCNC(=N)N)C(=O)N[C@@H](C)C(=O)N[C@@H](C)C(=O)O)[C@@H](C)CC)[C@@H](C)CC [PA-L3Sar] (H-IA[Sar]ILEPICCQERAA-OH; N-terminus and C-terminus assumed),87.36%,–,–,Yes
CC[C@H](C)[C@H](N)C(=O)N[C@@H](C)C(=O)N[C@@H](CC(C)C)C(=O)N[C@H](C(=O)N(C)CC(=O)N[C@@H](CCC(=O)O)C(=O)N1CCC[C@H]1C(=O)N[C@H](C(=O)N[C@@H](CS)C(=O)N[C@@H](CS)C(=O)N[C@@H](CCC(N)=O)C(=O)N[C@@H](CCC(=O)O)C(=O)N[C@@H](CCCNC(=N)N)C(=O)N[C@@H](C)C(=O)N[C@@H](C)C(=O)O)[C@@H](C)CC)[C@@H](C)CC [PA-L5Sar] (H-IALI[Sar]EPICCQERAA-OH; N-terminus and C-terminus assumed),85.13%,–,–,Yes
"CC[C@H](C)[C@H](N)C(=O)N[C@@H](C)C(=O)N[C@@H](CC(C)C)C(=O)N[C@H](C(=O)N[C@@H](CC(C)C)C(=O)N[C@@H](CCC(=O)O)C(=O)N(C)CC(=O)N[C@H](C(=O)N(C)CC(=O)N[C@@H](CS)C(=O)N[C@@H](CCC(N)=O)C(=O)N[C@@H](CCC(=O)O)C(=O)N[C@@H](CCCNC(=N)N)C(=O)N[C@@H](C)C(=O)N[C@@H](C)C(=O)O)[C@@H](C)CC)[C@@H](C)CC [PA-P7SarC9Sar, IALILE(Sar)I(Sar)CQERAA] (H-IALILE[Sar]I[Sar]CQERAA-OH)",82.72%,Yes,–,–
CC[C@H](C)[C@H](N)C(=O)N[C@@H](C)C(=O)N[C@@H](CC(C)C)C(=O)N[C@H](C(=O)N[C@@H](CC(C)C)C(=O)N[C@@H](CCC(=O)O)C(=O)N(C)CC(=O)N[C@H](C(=O)N[C@@H](CS)C(=O)N[C@@H](CS)C(=O)N[C@@H](CCC(N)=O)C(=O)N[C@@H](CCC(=O)O)C(=O)N[C@@H](CCCNC(=N)N)C(=O)N[C@@H](C)C(=O)N[C@@H](C)C(=O)O)[C@@H](C)CC)[C@@H](C)CC [PA-P7Sar] (H-IALILE[Sar]ICCQERAA-OH; N-terminus and C-terminus assumed),3.01%,–,water soluble,Yes
